Reference: patent US20260083704A1, “LXR MODULATORS WITH BICYCLIC CORE MOIETY FOR TREATING DYSLIPIDEMIAS” (OrsoBio, Inc., priority 2022, published 2026)

What was measured:
[1] = Short term HFD mouse model: plasma and liver exposure; assay type: in vivo; conditions: HFD mice, 4 h after final dose
Method: The in vivo transcriptional regulation of several LXR target genes by LXR modulators was assessed in mice.
For this, C57BL/6J were purchased from Elevage Janvier (Rennes, France) at the age of 8 weeks. After an acclimation period of two weeks, animals were prefed on a high fat diet (HFD) (Ssniff Spezialdiäten GmbH, Germany, Surwit EF D12330 mod, Cat. No. E15771-34), with 60 kcal % from fat plus 1% (w/w) extra cholesterol (Sigma-Aldrich, St. Louis, MO) for 5 days. Animals were maintained on this diet during treatment with LXR modulators. The test compounds were formulated in 0.5% hydroxypropylmethylcellulose (HPMC) and administered in three doses (from 1.5 to 20 mg/kg each) by oral gavage according to the following schedule: on day one, animals received treatment in the morning and the evening (ca. 17:00), on day two animals received the final treatment in the morning after a 4 h fast and were sacrificed 4 h thereafter. Animal work was conducted according to the national guidelines for animal care in Germany.
Upon termination, liver was collected, dipped in ice cold PBS for 30 seconds and cut into appropriate pieces. Pieces were snap frozen in liquid nitrogen and stored at −80° C. For the clinical chemistry analysis from plasma, alanine aminotransferase (ALT, IU/mL), cholesterol (CHOL, mg/dL) and triglycerides (TG, mg/dL) were determined using a fully-automated bench top analyzer (Respons®910, DiaSys Greiner GmbH, Flacht, Germany) with system kits provided by the manufacturer.

[2] = molecular target: T1, GST-LXRβ ligand-binding domain (Homo sapiens, UniProt P55055); assay: TR-FRETβ activity assay (NCoA3 coactivator peptide recruitment); assay type: biochemical; conditions: 1 μM 24(S)-25-epoxycholesterol prestimulation
T1 construct: amino acids 156-461; NP009052; made in house; host or cells: E. coli
T1 sequence (P55055 156-460 limits assumed): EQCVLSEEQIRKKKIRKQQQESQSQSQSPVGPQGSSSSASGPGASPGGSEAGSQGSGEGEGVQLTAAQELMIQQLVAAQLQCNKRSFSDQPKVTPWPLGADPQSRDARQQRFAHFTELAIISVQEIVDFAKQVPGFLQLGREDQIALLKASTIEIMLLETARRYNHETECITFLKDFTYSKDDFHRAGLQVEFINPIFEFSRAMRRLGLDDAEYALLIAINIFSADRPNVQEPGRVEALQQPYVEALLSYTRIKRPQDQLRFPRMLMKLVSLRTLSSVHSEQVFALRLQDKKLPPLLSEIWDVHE
How it was run: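 E. coli-expressed GST-LXRβ LBD (aa 156-461, 76 nM) with biotinylated NCoA3 peptide (400 nM) in Tris/HCl pH 6.8 containing 1 μM 24(S)-25-epoxycholesterol agonist. Compounds tested at 50 μM down to 0.002 μM in triplicate. TR-FRET (Tb cryptate/XL665, ex 340, em 615/665 nm) read after 1 h at 4° C.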

[3] = three oral doses of 20 mg/kg over two days
[4] = three oral doses of 10 mg/kg over two days

| Compound | liver exposure 4 h [1, 3] | liver/plasma ratio 4 h [1, 3] | plasma exposure 4 h [1, 3] | EC50 [2] [µM] | liver exposure 4 h [1, 4] | liver/plasma ratio 4 h [1, 4] | plasma exposure 4 h [1, 4] |
| --- | --- | --- | --- | --- | --- | --- | --- |
| Cc1ccc(S(=O)(=O)n2c(-c3cccc(-c4ccc(C(=O)O)cc4Cl)c3)c(-c3ccsc3C#N)c3cc(F)ccc32)cc1 [3/48] | C (1 μM to ≤10 μM) | C (30 to ≤100) | D (<100 nM) | 0.1 to 1 |  |  |  |
| O=C(O)c1ccc(-c2cccc(-c3c(-c4ccccc4C4COC4)c4cc(F)ccc4n3S(=O)(=O)c3ccc(C(F)F)cc3)c2)c(Cl)c1 [3/59] | C (1 μM to ≤10 μM) | B (5 to ≤30) | C (100 nM to <300 nM) | < 0.1 |  |  |  |
| Cc1ccc(S(=O)(=O)n2c(-c3cccc(C45CCC(C(=O)O)(CC4)CC5)c3)c(-c3ccsc3C#N)c3cc(F)ccc32)cc1 [3/64] | D (>10 μM) | D (>100) | C (100 nM to <300 nM) | 0.1 to 1 |  |  |  |
| N#Cc1cccc(C#N)c1-c1c(-c2cccc(-c3c(F)cc(CC(=O)O)cc3F)c2)n(S(=O)(=O)c2ccc(C(F)F)cc2)c2ccc(F)cc12 [3/73] |  |  |  | < 0.1 | B (300 nM to ≤1 μM) | C (30 to ≤100) | D (<100 nM) |
| Cc1ccc(S(=O)(=O)n2c(-c3cccc(-c4ccc(C(=O)O)cc4)c3)c(-c3ccsc3C#N)c3cc(F)ccc32)cc1 [5/3] | C (1 μM to ≤10 μM) | B (5 to ≤30) | D (<100 nM) | 0.1 to 1 |  |  |  |
| CC(=O)NS(=O)(=O)c1ccc(-c2cccc(-c3c(-c4c(C#N)cccc4C#N)c4cc(F)ccc4n3S(=O)(=O)c3ccc(C(F)F)cc3)c2)c(Cl)c1 [8/8] |  |  |  | < 0.1 | B (300 nM to ≤1 μM) | B (5 to ≤30) | C (100 nM to <300 nM) |
| N#Cc1cccc(C#N)c1-c1c(-c2cccc(-c3ccc(C(=O)NCCS(=O)(=O)O)cc3Cl)c2)n(S(=O)(=O)c2ccc(C(F)F)cc2)c2ccc(F)cc12 [10/1] |  |  |  | < 0.1 | B (300 nM to ≤1 μM) | C (30 to ≤100) | D (<100 nM) |
| CN(CCS(=O)(=O)O)C(=O)c1ccc(-c2cccc(-c3c(-c4c(C#N)cccc4C#N)c4cc(F)ccc4n3S(=O)(=O)c3ccc(C(F)F)cc3)c2)c(Cl)c1 [10/2] |  |  |  | < 0.1 | D (>10 μM) | B (5 to ≤30) | D (<100 nM) |
| N#Cc1nccnc1-c1c(-c2cccc(-c3cc(F)c(C(=O)O)cc3Cl)c2)n(S(=O)(=O)c2ccc(C(F)F)cc2)c2ccc(F)cc12 [11/11] | D (>10 μM) | D (>100) | D (<100 nM) | < 0.1 |  |  |  |
| N#Cc1cccc(C#N)c1-c1c(-c2cccc(-c3ccc(C(=O)O)cc3Cl)c2)n(S(=O)(=O)c2ccc(C(F)F)cc2)c2ccc(F)cc12 [11/12] | C (1 μM to ≤10 μM) | C (30 to ≤100) | D (<100 nM) | < 0.1 |  |  |  |
| O=C(O)c1ccc(-c2cccc(-c3c(-c4c(Cl)cccc4Cl)c4cc(F)ccc4n3S(=O)(=O)c3ccc(C(F)F)cc3)c2)c(Cl)c1 [11/13] | C (1 μM to ≤10 μM) | A (<5) | A (>1 μM) | < 0.1 |  |  |  |
| N#Cc1sccc1-c1c(-c2cccc(-c3ccc(C(=O)O)cc3Cl)c2)n(S(=O)(=O)c2ccc(C(F)(F)F)nc2)c2ccc(F)cc12 [11/16] | C (1 μM to ≤10 μM) | B (5 to ≤30) | C (100 nM to <300 nM) | 0.1 to 1 |  |  |  |
| N#Cc1sccc1-c1c(-c2cccc(-c3ccc(C(=O)O)cc3Cl)c2)n(S(=O)(=O)c2ccc(C(F)F)cc2)c2ccc(F)cc12 [11/17] | D (>10 μM) | C (30 to ≤100) | C (100 nM to <300 nM) | < 0.1 |  |  |  |
| O=C(O)c1ccc(-c2cccc(-c3c(-c4ncccc4C(F)(F)F)c4cc(F)ccc4n3S(=O)(=O)c3ccc(C(F)F)cc3)c2)c(Cl)c1 [11/23] | C (1 μM to ≤10 μM) | B (5 to ≤30) | C (100 nM to <300 nM) | < 0.1 |  |  |  |
| N#Cc1cccnc1-c1c(-c2cccc(-c3ccc(C(=O)O)cc3Cl)c2)n(S(=O)(=O)c2ccc(C(F)F)cc2)c2ccc(F)cc12 [11/26] |  |  |  | < 0.1 | C (1 μM to ≤10 μM) | C (30 to ≤100) | C (100 nM to <300 nM) |
| COc1c(C(=O)O)ccc(-c2cccc(-c3c(-c4ccccc4C#N)c4cc(F)ccc4n3S(=O)(=O)c3ccc(C(F)F)cc3)c2)c1Cl [11/27] | C (1 μM to ≤10 μM) | C (30 to ≤100) | D (<100 nM) | < 0.1 |  |  |  |
| N#Cc1ccccc1-c1c(-c2cccc(-c3ccc(C(=O)O)cc3Cl)c2)n(S(=O)(=O)c2ccc(C(F)F)cc2)c2ccc(F)cc12 [11/33] | C (1 μM to ≤10 μM) | C (30 to ≤100) | C (100 nM to <300 nM) | < 0.1 |  |  |  |
| N#Cc1cccc(C#N)c1-c1c(-c2cccc(-c3ccc(C(=O)O)cc3Cl)c2)n(S(=O)(=O)c2ccc(C(F)(F)F)nc2)c2ccc(F)cc12 [11/37] |  |  |  | < 0.1 | C (1 μM to ≤10 μM) | C (30 to ≤100) | D (<100 nM) |
| N#Cc1ccccc1-c1c(-c2cccc(-c3ccc(C(=O)O)cc3Cl)c2)n(S(=O)(=O)c2ccc(C(F)F)cc2)c2cnccc12 [11/49] | C (1 μM to ≤10 μM) | D (>100) | D (<100 nM) | < 0.1 |  |  |  |
| N#Cc1cccc(C#N)c1-c1c(-c2cccc(-c3ccc(C(=O)O)cc3F)c2)n(S(=O)(=O)c2ccc(C(F)F)cc2)c2ccc(F)cc12 [11/51] |  |  |  | < 0.1 | C (1 μM to ≤10 μM) | C (30 to ≤100) | D (<100 nM) |
| N#Cc1cccc(C#N)c1-c1c(-c2cccc(-c3c(F)cc(C(=O)O)cc3F)c2)n(S(=O)(=O)c2ccc(C(F)F)cc2)c2ccc(F)cc12 [11/53] |  |  |  | < 0.1 | C (1 μM to ≤10 μM) | C (30 to ≤100) | D (<100 nM) |
| N#Cc1cccc(C#N)c1-c1c(-c2cccc([C@H]3CC[C@H](C(=O)O)CC3)c2)n(S(=O)(=O)c2ccc(C(F)F)cc2)c2ccc(F)cc12 [11/62] |  |  |  | 0.1 to 1 | C (1 μM to ≤10 μM) | B (5 to ≤30) | C (100 nM to <300 nM) |
| N#Cc1cccc(C#N)c1-c1c(-c2cccc(-c3ccc(C(=O)O)cc3Cl)c2)n(S(=O)(=O)C2CCC(F)(F)CC2)c2ccc(F)cc12 [11/63] |  |  |  | 0.1 to 1 | C (1 μM to ≤10 μM) | B (5 to ≤30) | D (<100 nM) |
| N#Cc1cccc(C#N)c1-c1c(-c2cccc(-c3cc(F)c(C(=O)O)cc3Cl)c2)n(S(=O)(=O)c2ccc(C(F)F)cc2)c2ccc(F)cc12 [11/65] |  |  |  | < 0.1 | C (1 μM to ≤10 μM) | C (30 to ≤100) | D (<100 nM) |
| Cc1ccc(S(=O)(=O)n2c(-c3cccc(-c4ccc(C(=O)O)cc4)c3)c(-c3ccsc3C#N)c3cc(F)ccc32)cc1C [23/2] | A (<300 nM) | A (<5) | C (100 nM to <300 nM) | 0.1 to 1 |  |  |  |
| CS(=O)(=O)NC(=O)c1ccc(-c2cccc(-c3c(-c4c(C#N)cccc4C#N)c4cc(F)ccc4n3S(=O)(=O)c3ccc(C(F)F)cc3)c2)c(Cl)c1 [32/5] |  |  |  | < 0.1 | B (300 nM to ≤1 μM) | B (5 to ≤30) | D (<100 nM) |
| N#Cc1cccc(C#N)c1-c1c(-c2cccc(-c3ccc(C(=O)NCC(=O)O)cc3Cl)c2)n(S(=O)(=O)c2ccc(C(F)F)cc2)c2ccc(F)cc12 [Compound 21/3] |  |  |  | < 0.1 | C (1 μM to ≤10 μM) | D (>100) | D (<100 nM) |
